Experimental data reported in paper PMC8485799, “Synthesis and Antiprotozoal Profile of 3,4,5‐Trisubstituted Isoxazoles” (ChemistryOpen, 2021).
Like-named read-outs stand apart in the source and are kept apart here.

Columns and labels:
fibroblast line (L929) = assay: Cytotoxicity assay in mammalian cells (MTT), fibroblasts, 72 h; type: cell-based
Outline: (§1)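 Cells pre-grown 24 h to confluence (L929 2.5×10^5, J774 A1 5×10^5 cells.mL^−1), then exposed to compound dilutions at 37 °C, 5 % CO2: L929 in DMEM/10 % FBS for 72 h, J774 A1 in RPMI‐1640/10 % FBS for 48 h. MTT (2 mg.mL^−1, 4 h), formazan read at […]; CC50 from viability versus untreated controls.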

[1] = test system: promastigote forms of Leishmania amazonensis (WHOM/BR/75/JOSEFA strain); assay: Antiproliferative assay (XTT), promastigote forms, 72 h; type: cell-based; conditions: for IC50: promastigote form, 72 h, XTT, read-out: L. amazonensis IC50
Outline: (§2)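 Parasites at 1×10^6 mL^−1 with compound (DMSO stock diluted in medium): L. amazonensis promastigotes in Warren medium + 10% FBS at 25 °C for 72 h, T. cruzi epimastigotes in LIT medium + 10% FBS at 28 °C for 96 h. Viability by XTT/PMS for 4 h, absorbance at 450 nm. IC50 from % viable versus control.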

macrophages (J774 A1) = assay: Cytotoxicity assay in mammalian cells (MTT), macrophages, 48 h; type: cell-based
Outline: as §1

[2] = test system: epimastigote forms of Trypanosoma cruzi (Y strain); assay: Antiproliferative assay (XTT), epimastigote forms, 96 h; type: cell-based; conditions: for IC50: epimastigote form, 96 h, XTT, read-out: T. cruzi IC50
Outline: as §2

[3] = Cytotoxicity assay in mammalian cells (MTT), fibroblasts, 72 h; type: cell-based; conditions: mouse, L929 fibroblast cells, pH 7.2; 50 % inhibition of fibroblast growth, 72 h, MTT
Outline: as §1

[4] = Cytotoxicity assay in mammalian cells (MTT), macrophages, 48 h; type: cell-based; conditions: mouse, J774 A1 macrophages, pH 7.2; 50 % inhibition of macrophages growth, 48 h, MTT
Outline: as §1

[5] = test system: both forms of L. amazonensis; design: method as in PMID 27597410; conditions: cited from earlier work

CCOC(=O)c1noc(-c2ccc([N+](=O)[O-])cc2)c1CNc1ccccc1 [2 aa, 3‐Carboxyethyl‐4‐(phenyl)aminomethyl‐5‐(4‐nitrophenyl)isoxazole]
CC50 (fibroblast line (L929)): 270 ± 8.9 µM | IC50 [1]: 34.8 ± 1.7 µM | CC50 (macrophages (J774 A1)): 202 ± 6.5 µM | IC50 [2]: 54.2 ± 3 µM

COc1ccc(NCc2c(C(=O)N/N=C/c3ccc(-c4cccs4)s3)noc2-c2ccc(Cl)cc2)cc1 [6 dc]
CC50 at 72 h [3]: 398 ± 7.8 µM | IC50 ([1]; Leishmania amazonensis): 32.7 ± 3 µM | SIL-F, selectivity index (Fibroblast CC50/L. amazonensis IC50) ([1]; fibroblast vs promastigote): 12.16 | SIL-M, selectivity index (Macrophages CC50/L. amazonensis IC50) ([1]; macrophages vs promastigote): 9.45 | melting point: 199.9 to 202.7 °C | CC50 at 48 h [4]: 309 ± 8 µM | IC50 ([2]; Trypanosoma cruzi): 30.5 ± 1.6 µM | SIT-F, selectivity index (Fibroblast CC50/T. cruzi IC50) ([2]; fibroblast vs epimastigote): 13.0 | SIT-M, selectivity index (Macrophages CC50/T. cruzi IC50) ([2]; macrophages vs epimastigote): 10.1

O=C(N/N=C/c1cccs1)c1nn(-c2ccccc2)c(=O)c2c1cnn2-c1ccccc1 [IV]
Activity against both forms of L. amazonensis [5]: good activity values

O=C(N/N=C/c1ccc(-c2cccs2)s1)c1nn(-c2ccccc2)c(=O)c2c1cnn2-c1ccccc1 [V]
Activity against both forms of L. amazonensis [5]: good activity values
